Test results: the supplement of paper PMC6045584
± gives the standard deviation of the averaged measurements.

Tests used:
XAV-939 = compound: Oc1nc(-c2ccc(C(F)(F)F)cc2)nc2c1CSCC2 [XAV-939]; assay: surviving fraction relative to DMSO-only wells; higher = less growth inhibition; settings: exposure time: 5 days
Method in brief: (§1)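 Surviving fraction is CellTiter-Glo luminescence divided by the median of wells given DMSO only. For this, log-phase tumour cell lines went into 384-well plates at 250–500 cells per well and, 24 hours later, into five days of continuous inhibitor exposure at 0.5, 1, 5, 10, 50, 100, 500 and 1000 nM. Lines were screened three times and retained only if replicate Pearson r >0.7 and median Z' >0.3.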

[1] = compound: COc1cc2ncnc(Nc3ccc(F)c(Cl)c3)c2cc1NC(=O)/C=C/CN1CCCCC1; assay: as above; settings: exposure time: 5 days
Method in brief: as §1

Row | Test System | surviving fraction (XAV-939; 0.5 nM) | surviving fraction (XAV-939; 1 nM) | surviving fraction (XAV-939; 5 nM) | surviving fraction (XAV-939; 10 nM) | surviving fraction (XAV-939; 50 nM) | surviving fraction (XAV-939; 100 nM) | surviving fraction (XAV-939; 500 nM) | surviving fraction (XAV-939; 1000 nM) | surviving fraction ([1]; 0.5 nM) | surviving fraction ([1]; 1 nM) | surviving fraction ([1]; 5 nM) | surviving fraction ([1]; 10 nM) | surviving fraction ([1]; 50 nM) | surviving fraction ([1]; 100 nM) | surviving fraction ([1]; 500 nM) | surviving fraction ([1]; 1000 nM)
1 | SIHA CERVIX | 1.02 ± 0.045 | 1.05 ± 0.067 | 1.05 ± 0.084 | 1.16 ± 0.13 | 1.1 ± 0.044 | 1.19 ± 0.025 | 1 ± 0.063 | 0.974 ± 0.046 | 1.05 ± 0.12 | 0.994 ± 0.043 | 1.02 ± 0.082 | 1.1 ± 0.074 | 1.04 ± 0.11 | 1.06 ± 0.11 | 0.862 ± 0.055 | 0.672 ± 0.067
2 | SJSA1 BONE | 1.1 ± 0.061 | 1.04 ± 0.053 | 1.06 ± 0.037 | 1.12 ± 0.055 | 1.16 ± 0.06 | 1.18 ± 0.037 | 1.07 ± 0.071 | 1.08 ± 0.014 | 1.04 ± 0.071 | 1.08 ± 0.072 | 1.05 ± 0.053 | 1.09 ± 0.016 | 1.1 ± 0.043 | 1.14 ± 0.074 | 1.04 ± 0.072 | 1.01 ± 0.03
3 | SKBR3 BREAST | 1.07 ± 0.17 | 0.943 ± 0.089 | 1.04 ± 0.16 | 0.898 ± 0.054 | 1.11 ± 0.065 | 1.02 ± 0.1 | 0.854 ± 0.14 | 0.772 ± 0.053 | 0.879 ± 0.038 | 0.983 ± 0.089 | 0.522 ± 0.041 | 0.471 ± 0.03 | 0.195 ± 0.0032 | 0.161 ± 0.017 | 0.145 ± 0.018 | 0.105 ± 0.018
4 | SNU475 LIVER | 0.936 ± 0.035 | 0.976 ± 0.033 | 0.891 ± 0.18 | 1.02 ± 0.018 | 0.952 ± 0.011 | 0.965 ± 0.033 | 0.713 ± 0.068 | 0.59 ± 0.027 | 0.967 ± 0.017 | 0.96 ± 0.017 | 0.92 ± 0.037 | 0.927 ± 0.086 | 0.897 ± 0.022 | 0.895 ± 0.05 | 0.698 ± 0.038 | 0.481 ± 0.028
5 | SUM44 BREAST | 1.02 ± 0.059 | 1.05 ± 0.051 | 1.05 ± 0.02 | 1.06 ± 0.044 | 1.08 ± 0.045 | 1.1 ± 0.025 | 1.07 ± 0.023 | 1.12 ± 0.06 | 1.01 ± 0.028 | 1.03 ± 0.031 | 1.01 ± 0.05 | 1.01 ± 0.053 | 1.03 ± 0.06 | 1.07 ± 0.018 | 0.916 ± 0.044 | 0.727 ± 0.0096
6 | SUM149 BREAST | 1.02 ± 0.094 | 0.987 ± 0.05 | 0.971 ± 0.067 | 0.942 ± 0.034 | 0.854 ± 0.095 | 0.691 ± 0.037 | 0.432 ± 0.0091 | 0.328 ± 0.022 | 1.03 ± 0.095 | 1.03 ± 0.061 | 0.851 ± 0.04 | 0.747 ± 0.044 | 0.515 ± 0.056 | 0.395 ± 0.091 | 0.362 ± 0.013 | 0.341 ± 0.071
7 | SUM149.B1*.S BREAST | 0.968 ± 0.033 | 1.07 ± 0.059 | 1.04 ± 0.047 | 1.06 ± 0.082 | 0.996 ± 0.045 | 1.06 ± 0.033 | 1.01 ± 0.03 | 1 ± 0.026 | 1.06 ± 0.066 | 1.03 ± 0.035 | 1.02 ± 0.02 | 1.03 ± 0.043 | 0.962 ± 0.026 | 0.977 ± 0.036 | 0.833 ± 0.026 | 0.914 ± 0.043
8 | SUM159 BREAST | 1.17 ± 0.32 | 1.15 ± 0.19 | 1.14 ± 0.21 | 1.16 ± 0.22 | 1.12 ± 0.2 | 1.13 ± 0.18 | 1.09 ± 0.16 | 1.08 ± 0.11 | 1.08 ± 0.076 | 1.14 ± 0.16 | 1.1 ± 0.14 | 1.13 ± 0.2 | 1.06 ± 0.065 | 0.931 ± 0.14 | 1.01 ± 0.052 | 0.984 ± 0.017
